Measured values: PMC5814837 (Pest Management Science, 2017)
Values after ≈ are worked out from the molar mass of the structure shown. Values joined by “and” are separate entries in the source; they are usually repeats but may differ in a detail not shown here. Identical values can stand only once. Like-named read-outs stand apart in the source and are kept apart here.

Legend:
[1] = molecular target: mitochondrial succinate dehydrogenase (SDH); assay: biochemical; set-up: species or system Zymoseptoria tritici
[2] = molecular target: mitochondrial succinate dehydrogenase (SDH) (Zymoseptoria tritici, UniProt F9X9V6+F9XH52+O42772); assay: biochemical; details: IC50
mitochondrial succinate dehydrogenase (SDH) (Zymoseptoria tritici, UniProt F9X9V6+F9XH52+O42772), sequence (O42772 19-297): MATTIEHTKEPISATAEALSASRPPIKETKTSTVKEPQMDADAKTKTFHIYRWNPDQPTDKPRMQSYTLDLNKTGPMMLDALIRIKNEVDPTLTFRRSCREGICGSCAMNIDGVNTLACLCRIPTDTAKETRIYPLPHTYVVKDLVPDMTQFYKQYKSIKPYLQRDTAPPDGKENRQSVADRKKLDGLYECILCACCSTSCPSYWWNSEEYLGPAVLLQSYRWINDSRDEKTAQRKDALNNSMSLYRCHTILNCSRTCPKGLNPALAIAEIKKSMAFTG
mitochondrial succinate dehydrogenase (SDH) (Zymoseptoria tritici, UniProt F9X9V6+F9XH52+O42772), sequence (F9XH52 44-187): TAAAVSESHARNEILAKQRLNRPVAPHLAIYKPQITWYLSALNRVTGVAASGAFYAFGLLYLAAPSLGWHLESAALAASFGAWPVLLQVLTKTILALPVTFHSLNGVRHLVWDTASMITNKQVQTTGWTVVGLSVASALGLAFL
mitochondrial succinate dehydrogenase (SDH) (Zymoseptoria tritici, UniProt F9X9V6+F9XH52+O42772), sequence (F9X9V6 1-193): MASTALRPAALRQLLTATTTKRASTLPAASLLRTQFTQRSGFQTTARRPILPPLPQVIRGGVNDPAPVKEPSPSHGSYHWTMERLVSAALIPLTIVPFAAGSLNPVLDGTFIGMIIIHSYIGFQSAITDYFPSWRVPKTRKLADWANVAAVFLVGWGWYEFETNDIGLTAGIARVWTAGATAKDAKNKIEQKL
mitochondrial succinate dehydrogenase (SDH) (Zymoseptoria tritici, UniProt F9X9V6+F9XH52+O42772), sequence (F9WWR1 29-643 partner): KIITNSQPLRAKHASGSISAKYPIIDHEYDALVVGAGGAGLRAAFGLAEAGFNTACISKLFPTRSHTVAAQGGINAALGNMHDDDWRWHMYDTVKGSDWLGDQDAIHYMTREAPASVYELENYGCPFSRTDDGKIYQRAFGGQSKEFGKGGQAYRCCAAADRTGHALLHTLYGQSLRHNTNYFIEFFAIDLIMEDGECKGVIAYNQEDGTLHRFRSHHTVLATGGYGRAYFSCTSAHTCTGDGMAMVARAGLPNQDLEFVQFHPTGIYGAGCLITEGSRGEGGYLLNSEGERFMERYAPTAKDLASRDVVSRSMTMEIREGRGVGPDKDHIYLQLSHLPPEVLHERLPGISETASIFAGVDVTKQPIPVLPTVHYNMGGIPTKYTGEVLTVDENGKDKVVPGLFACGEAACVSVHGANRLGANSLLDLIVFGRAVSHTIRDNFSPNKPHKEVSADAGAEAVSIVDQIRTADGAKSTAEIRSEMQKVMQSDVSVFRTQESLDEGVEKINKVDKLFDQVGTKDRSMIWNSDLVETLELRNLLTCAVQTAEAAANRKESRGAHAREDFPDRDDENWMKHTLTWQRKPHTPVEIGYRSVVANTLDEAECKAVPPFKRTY

Zymoseptoria tritici [3] = assay: microbe, parasite or virus in culture; type: cell-based
Zymoseptoria tritici [4] = details: in vivo
[5] = Zymoseptoria tritici, read-out: EC50 Median
[6] = Zymoseptoria tritici, read-out: EC50 Range

Compound	EC50 (Zymoseptoria tritici [3])	EC50 Median (Zymoseptoria tritici [3])	EC50 (Zymoseptoria tritici [3]; Zymoseptoria tritici)	EC50 (Zymoseptoria tritici [3]; [5])	other results
Cn1cc(C(=O)Nc2ccc(F)cc2-c2ccc(Cl)c(Cl)c2)c(C(F)F)n1 [Bixafen, bixafen]	0.03 µg/mL (≈ 0.0724 µM)	0.096 µg/mL (≈ 0.232 µM)	0.03 µg/mL (≈ 0.0724 µM)	0.063 µg/mL (≈ 0.152 µM)	IC50 [1]: 31 nM and 49 nM; IC50 [2]: 33 nM and 38 nM; EC50 (Zymoseptoria tritici [3]; [6]): 0.017 to 0.406 µg/mL (≈ 0.041 to 0.98 µM); Control efficacy (Zymoseptoria tritici [4]): 0%; application rate at which strain was well controlled (Zymoseptoria tritici [4]): 3 mg/L; application rate at which strains were well controlled (Zymoseptoria tritici [4]): 10 mg/L
O=C(Nc1ccccc1-c1ccc(Cl)cc1)c1cccnc1Cl [Boscalid, boscalid]	–	–	0.16 µg/mL (≈ 0.466 µM)	–	–
N#Cc1c(Cl)c(Cl)c(Cl)c(C#N)c1Cl [Chlorothalonil, chlorothalonil]	–	–	0.13 µg/mL (≈ 0.489 µM)	–	Resistance factor (RF) (Zymoseptoria tritici [3]): 0.8 and 1.2 and 1.3 and 1.4 and 0.7; sensitivity of strains (in words) (Zymoseptoria tritici [3]): sensitive
[Cl][Sn]([c]1ccccc1)([c]1ccccc1)[c]1ccccc1 [Fentin Cl, fentin chloride]	0.07 µg/mL	–	–	–	–
O=C(NCCc1ncc(C(F)(F)F)cc1Cl)c1ccccc1C(F)(F)F [Fluopyram, fluopyram]	0.20 µg/mL (≈ 0.504 µM)	0.215 µg/mL (≈ 0.542 µM)	0.2 µg/mL (≈ 0.504 µM)	0.19 µg/mL (≈ 0.479 µM)	EC50 (Zymoseptoria tritici [3]; [6]): 0.08 to 7.78 µg/mL (≈ 0.202 to 19.6 µM); application rate providing control (Zymoseptoria tritici [4]): ≥ 30 mg/L; in planta control (in words) (Zymoseptoria tritici [4]): not controlled
Cn1cc(C(=O)Nc2ccccc2-c2cc(F)c(F)c(F)c2)c(C(F)F)n1 [Fluxapyroxad]	0.04 µg/mL (≈ 0.105 µM)	–	0.04 µg/mL (≈ 0.105 µM)	–	RF in comparison with reference strain IPO323 (Zymoseptoria tritici [3]): < 10
Cc1cc(OC(C)C)ccc1C(=O)C(C)(C)NC(=O)c1sccc1C [Isofetamid, N‐[1,1‐dimethyl‐2‐(4‐isopropoxy‐o‐tolyl)‐2‐oxoethyl]‐3‐methylthiophene‐2‐carboxamide]	0.06 µg/mL (≈ 0.167 µM)	0.096 µg/mL (≈ 0.267 µM)	–	0.09 µg/mL (≈ 0.25 µM)	EC50 (Zymoseptoria tritici [3]; Zymoseptoria tritici, read-out: high EC50 values (upper end of the sensitivity range)): > 50 µg/mL; in planta control (in words) (Zymoseptoria tritici [4]): not controlled
CC(C)CC(C)c1sccc1NC(=O)c1cn(C)nc1C(F)(F)F (stereo not drawn) [Penthiopyrad, penthiopyrad]	–	–	0.05 µg/mL (≈ 0.139 µM)	–	–
Cc1cccc(N(C)C(=S)Oc2ccc3ccccc3c2)c1 [Tolnaftate, tolnaftate]	–	–	0.17 µg/mL (≈ 0.553 µM)	–	growth in the presence of tolnaftate (Zymoseptoria tritici [3]): none of these strains was able to grow
